Here are results for 13 molecules from ChEMBL document CHEMBL1133244, “Solid-phase synthesis of an arylsulfone hydroxamate library” (Bioorg Med Chem Lett, 2000).

The source made the active and inactive calls. The rule behind the calls is not given here.

Test [1] addresses T1, Stromelysin-1 (Homo sapiens, UniProt P08254). Nature of the test: Inhibitory activity against recombinant matrix metalloprotease-3.
For test [2], the target named is T2, Interstitial collagenase (Homo sapiens, UniProt P03956).
T2 sequence (P03956 whole entry): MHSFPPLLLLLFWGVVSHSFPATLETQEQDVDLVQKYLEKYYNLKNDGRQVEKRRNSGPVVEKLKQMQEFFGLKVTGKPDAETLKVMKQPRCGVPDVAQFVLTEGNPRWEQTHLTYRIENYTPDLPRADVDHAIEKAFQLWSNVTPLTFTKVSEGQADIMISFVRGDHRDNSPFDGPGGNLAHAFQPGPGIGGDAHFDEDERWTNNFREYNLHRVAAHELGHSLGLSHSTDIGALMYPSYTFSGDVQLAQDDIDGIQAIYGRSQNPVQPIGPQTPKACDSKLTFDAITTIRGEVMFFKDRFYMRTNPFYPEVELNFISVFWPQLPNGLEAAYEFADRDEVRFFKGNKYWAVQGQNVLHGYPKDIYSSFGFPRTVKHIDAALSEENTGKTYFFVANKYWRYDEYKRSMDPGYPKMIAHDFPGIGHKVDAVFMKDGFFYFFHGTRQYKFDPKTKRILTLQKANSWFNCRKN
Description: Inhibition of Matrix metalloprotease-1.

The target of test [3] is T3, 72 kDa type IV collagenase (Homo sapiens, UniProt P08253). Nature of the test: Inhibitory activity against recombinant matrix metalloprotease-2.
T3 sequence (P08253 whole entry): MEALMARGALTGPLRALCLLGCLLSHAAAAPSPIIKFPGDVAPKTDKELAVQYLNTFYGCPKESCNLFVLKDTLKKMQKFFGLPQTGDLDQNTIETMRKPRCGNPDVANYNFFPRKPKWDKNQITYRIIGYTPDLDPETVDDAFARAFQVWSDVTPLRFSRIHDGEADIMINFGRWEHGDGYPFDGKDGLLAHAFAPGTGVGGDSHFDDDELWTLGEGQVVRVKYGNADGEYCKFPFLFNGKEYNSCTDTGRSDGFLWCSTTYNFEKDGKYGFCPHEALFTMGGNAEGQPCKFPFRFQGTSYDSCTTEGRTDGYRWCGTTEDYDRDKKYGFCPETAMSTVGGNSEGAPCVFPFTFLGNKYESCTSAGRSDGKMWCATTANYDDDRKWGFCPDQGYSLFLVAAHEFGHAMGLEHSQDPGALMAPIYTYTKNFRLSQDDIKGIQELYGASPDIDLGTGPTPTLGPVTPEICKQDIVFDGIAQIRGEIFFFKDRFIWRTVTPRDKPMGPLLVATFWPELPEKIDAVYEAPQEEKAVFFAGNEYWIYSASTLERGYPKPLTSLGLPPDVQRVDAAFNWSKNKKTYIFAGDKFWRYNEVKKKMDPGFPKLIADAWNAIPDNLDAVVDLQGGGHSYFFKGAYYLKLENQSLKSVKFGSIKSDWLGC
In test [4] the target is T2, Interstitial collagenase. Description: In vitro inhibition of human recombinant Matrix metalloprotease-1.
Test [5] addresses Disintegrin and metalloproteinase domain-containing protein 17 (Homo sapiens) (UniProt P78536). Nature of the test: Inhibitory activity against TACE.
The target in test [6] is T3, 72 kDa type IV collagenase.
Description: In vitro inhibition of human recombinant Matrix metalloprotease-2.
Test [7] can be described thus: In vitro for the inhibition of TNF alpha release by human peripheral blood monocytes (PBMs). It counts as functional.
The target of test [8] is T1, Stromelysin-1. Nature of the test: In vitro inhibition of human recombinant Matrix metalloprotease-3.
Test [9] deals with Phosphodiesterase 4 (Cavia porcellus). Nature of the test: Phosphodiesterase 4 inhibitory activity measured against guinea pig macrophage homogenate.

Sequence of Disintegrin and metalloproteinase domain-containing protein 17 (Homo sapiens) (P78536 whole entry, the tested form may be a part): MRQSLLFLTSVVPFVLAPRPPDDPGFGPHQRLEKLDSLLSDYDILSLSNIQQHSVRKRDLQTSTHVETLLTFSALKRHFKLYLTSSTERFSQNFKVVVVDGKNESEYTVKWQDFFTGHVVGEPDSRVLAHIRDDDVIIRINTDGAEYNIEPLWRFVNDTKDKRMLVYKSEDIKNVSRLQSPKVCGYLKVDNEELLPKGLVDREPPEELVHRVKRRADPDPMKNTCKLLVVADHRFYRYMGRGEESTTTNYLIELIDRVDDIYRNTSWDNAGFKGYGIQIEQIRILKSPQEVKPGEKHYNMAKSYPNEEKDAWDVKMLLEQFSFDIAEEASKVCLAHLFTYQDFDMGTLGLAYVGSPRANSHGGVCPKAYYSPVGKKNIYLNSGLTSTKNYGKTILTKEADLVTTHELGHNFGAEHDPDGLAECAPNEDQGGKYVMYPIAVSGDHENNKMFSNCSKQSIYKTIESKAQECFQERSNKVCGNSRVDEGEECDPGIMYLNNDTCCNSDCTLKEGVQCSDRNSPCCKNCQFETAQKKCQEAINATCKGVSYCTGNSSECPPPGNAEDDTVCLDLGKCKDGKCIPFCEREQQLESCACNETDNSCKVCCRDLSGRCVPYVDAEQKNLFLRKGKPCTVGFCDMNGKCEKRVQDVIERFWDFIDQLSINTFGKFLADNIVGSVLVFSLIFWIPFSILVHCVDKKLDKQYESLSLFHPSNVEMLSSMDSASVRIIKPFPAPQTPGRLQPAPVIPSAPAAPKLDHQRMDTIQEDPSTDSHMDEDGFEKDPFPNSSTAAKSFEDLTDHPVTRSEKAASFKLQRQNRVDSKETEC
T1 sequence (P08254 whole entry): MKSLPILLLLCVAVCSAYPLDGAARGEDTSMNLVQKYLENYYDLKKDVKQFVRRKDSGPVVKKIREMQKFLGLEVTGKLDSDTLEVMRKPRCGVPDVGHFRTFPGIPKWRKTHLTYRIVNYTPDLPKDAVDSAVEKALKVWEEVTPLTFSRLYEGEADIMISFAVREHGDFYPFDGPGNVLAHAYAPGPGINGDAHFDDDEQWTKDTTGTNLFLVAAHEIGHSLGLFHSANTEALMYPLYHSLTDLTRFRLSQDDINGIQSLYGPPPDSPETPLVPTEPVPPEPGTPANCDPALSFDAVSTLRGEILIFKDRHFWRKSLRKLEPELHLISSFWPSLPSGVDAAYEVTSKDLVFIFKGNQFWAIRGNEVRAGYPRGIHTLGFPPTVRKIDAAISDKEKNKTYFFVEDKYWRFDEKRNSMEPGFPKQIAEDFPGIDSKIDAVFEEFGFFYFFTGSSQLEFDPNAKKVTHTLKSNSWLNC

By IC50 is commonly meant the concentration at which inhibition is half-maximal. Regarding `COc1ccc(S(=O)(=O)C(CCCCc2ccccc2)CC(=O)NO)cc1OC` (centres undefined), the IC50 (on Stromelysin-1 [1]; at Interstitial collagenase [2]; in test [3]) was above 10000 nM throughout.

Usually Ki stands for a measure of affinity in units of concentration, obtained from inhibition or displacement. As to `COc1ccc(S(=O)(=O)C(CC(=O)NO)c2ccc(Oc3ccccc3)cc2)cc1` (centres undefined), the Ki (on Interstitial collagenase [4]; in test [6]; at Stromelysin-1 [8]) was above 10000 nM in each case. In addition, in test [5], the outcome was inactive. The half-inhibitory concentration (IC50) in [7] was 730 nM; in test [9], 280 nM.

Regarding `COc1ccc(S(=O)(=O)C(CC(=O)NO)c2ccc(OCc3ccccc3)cc2)cc1` (centres undefined), the inhibitory constant (Ki) (at Interstitial collagenase [4]; in test [6]; at Stromelysin-1 [8]) was above 10000 nM in each case. For the same molecule, the outcome in test [5] was inactive. The half-maximal inhibitory concentration (IC50) worked out at 1200 nM in [7] and 520 nM in test [9].

Consider `COc1ccc(S(=O)(=O)C(CC(=O)NO)c2ccc(-c3ccccc3)cc2)cc1` (centres undefined), for which the inhibitory constant (Ki) (at Interstitial collagenase [4]; in test [6]; on Stromelysin-1 [8]) was above 10000 nM each time. Further, the outcome in test [5] was inactive. The IC50 in test [7] is 4400 nM; in [9] it was 3600 nM.

Regarding `COc1ccc(S(=O)(=O)C(COCc2ccccc2)CC(=O)NO)cc1` (centres undefined), the Ki was above 10000 nM on Interstitial collagenase [4], 38 nM in test [6] and 1430 nM on Stromelysin-1 [8]. Further, the outcome in test [5] was inactive. Further, the half-maximal inhibitory concentration (IC50) in [7] was above 10000 nM.

On to `CCCCC(CC(=O)NO)S(=O)(=O)c1ccc(OC)cc1` (centres undefined), for which the inhibition constant (Ki) came to 4170 nM at Interstitial collagenase [4], 30 nM in test [6] and 404 nM at Stromelysin-1 [8]. Moreover, the result in test [5] was inactive. Besides, the half-maximal inhibitory concentration (IC50) in test [7] was above 10000 nM.

On to `COc1ccc(S(=O)(=O)C(CCCCc2ccc3c(c2)OCO3)CC(=O)NO)cc1OC1CCCC1` (centres undefined), for which the half-maximal inhibitory concentration (IC50) on Stromelysin-1 [1] was above 10000 nM; against Interstitial collagenase [2], above 10000 nM; in [3], above 10000 nM; in test [9], 11 nM.

As for `COc1ccc(S(=O)(=O)C(CCc2ccccc2)CC(=O)NO)cc1` (centres undefined), the inhibition constant (Ki) amounted to 2160 nM at Interstitial collagenase [4], 43 nM in test [6] and 350 nM on Stromelysin-1 [8]. Also, the result in test [5] was inactive. Moreover, the IC50 in [7] was above 10000 nM.

`COc1ccc(S(=O)(=O)C(CCC2CCCCC2)CC(=O)NO)cc1` (centres undefined): the Ki amounted to 400 nM on Interstitial collagenase [4], 36 nM in [6] and 590 nM on Stromelysin-1 [8]. Also, the outcome in [5] was inactive. In test [7], this molecule yielded an IC50 above 10000 nM.

`COc1ccc(S(=O)(=O)C(CC(=O)NO)CC(C)CC(C)(C)C)cc1` (centres undefined): the inhibition constant (Ki) on Interstitial collagenase [4] was found to be 1720 nM; in test [6], 27 nM; at Stromelysin-1 [8], 676 nM. Besides, the outcome in test [5] was inactive. Moreover, the midpoint of inhibition in test [7], the IC50, lay at 8000 nM.

For `COC(=O)c1ccc(C(CC(=O)NO)S(=O)(=O)c2ccc(OC)cc2)cc1` (centres undefined), the Ki at Interstitial collagenase [4] stood at 1900 nM; in [6], 88 nM; at Stromelysin-1 [8], 4420 nM. The result in test [5] was inactive. For the same molecule, the IC50 in test [7] was above 10000 nM.

As for `CCOC(=O)C1CCCC(C(CC(=O)NO)S(=O)(=O)c2ccc(OC)cc2)C1` (centres undefined), the Ki was found to be 1010 nM at Interstitial collagenase [4], 0.8 nM in test [6] and 60 nM at Stromelysin-1 [8]. Moreover, the outcome in test [5] was inactive. The same molecule returned an IC50 in test [7] of 4600 nM.

Regarding `COc1ccc(S(=O)(=O)C(CCCCc2ccccc2)CC(=O)NO)cc1OC1CCCC1` (centres undefined), the concentration for half-maximal inhibition (IC50) at Stromelysin-1 [1] was above 10000 nM; against Interstitial collagenase [2], above 10000 nM; in test [3] it was above 10000 nM; in [9], 6.9 nM.
